Measurements reported in patent US8569288B2, “Thienotriazolodiazepine derivatives active on apo A” (CircoMed LLC, priority 2008, dated 2013).

Tests used:
[1] = tested on: plasma apolipoprotein A1 (apo A1); conditions: as described in U.S. Pat. No. 5,854,238; cited from earlier work
[2] = tested on: apo A1 secretion in human hepatocytes; experiment: Apo A1 secretion by human hepatocytes (ELISA of supernatant, normalised to cell protein); assay type: cell-based; conditions: for Apo A1 (ng secreted per mg cell protein), 1st / Apo A1 (ng secreted per mg cell protein), 2nd / Apo A1 (ng secreted per mg cell protein), mean: 3x24 h; for Apo A1 (ng secreted per mg cell protein), 1st: 1st parallel measurement; for Apo A1 (ng secreted per mg cell protein), 2nd: 2nd parallel measurement; for Apo A1 (ng secreted per mg cell protein), mean: mean of two measurements
Method: Human hepatocytes were isolated from pieces of livers, obtained from donors which could not be used for transplantation, following the procedure described in U.S. Pat. No. 6,444,664. The cells were seeded on culture dishes at a density of 1.5×10^5 viable cells per cm^2 and were maintained for the first 24 h in 1.5 mL per 10 cm^2 of Williams E medium supplemented with 10% heat inactivated fetal calf serum (FCS), 2 mmol/L L-glutamine, 20 mU/mL insulin (135 nmol/L), 50 nmol/L dexamethasone, 100 U/mL penicillin, 100 μg/mL streptomycin and 100 μg/mL kanamycin at 37° C. in a 5% CO2/95% air atmosphere. After 14-16 h the non-adherent cells were washed from the plates, using the same culture medium as described above. 24 h after seeding, the incubations with the compounds were started in 1 mL of the same culture medium, but with an insulin concentration of 10 nmol/L instead of 135 nmol/L.
The human hepatocytes were treated with compounds 5, 6 and 7 (dissolved in DMSO, with the final concentration of DMSO not exceeding 0.1% v/v) at concentrations of 100 μM, 30 μM, 10 μM and 3 μM and incubated for 24 hours. The DMSO concentration in all samples and controls was 0.1%. The control wells contained DMSO (0.1% v/v) alone. The medium on the cells was removed and replaced with fresh medium with fresh compound and incubated for 24 hours. The medium was then again removed and replaced with fresh medium with fresh compound and incubated for another 24 hours. The supernatant was then removed from the cells and levels of apo A1 were determined using a commercially available ELISA (AlerCHEK™) with a HRP conjugated goat anti-apo A1 antibody and TMB/peroxidase substrate colour developer. Supernatants were diluted 1:4 with the wash buffer provided in the kit.
After the last incubation the cells were washed twice with PBS, and BCA (bicinchoninic acid) reagent was added to each well to assay total cellular protein according to standard methods.

[3] = tested on: central benzodiazepine receptor (BZD); experiment: Binding to central benzodiazepine receptor, [3H]flunitrazepam displacement on rat cerebral cortex membranes
Method: Affinity of the compounds of the invention to the central benzodiazepine receptor (BZD) was measured by determining the binding of 0.4 nM [^3H]flunitrazepam to rat cerebral cortex membranes, and its displacement by compounds of the invention as compared to the reference ligand diazepam, at 4° C. for 60 min, as described by R. C. Speth et al., Life Sci. 24:351-358 (1979).
The specific binding to the receptors is defined as the difference between the total binding and the non-specific binding determined in the presence of an excess of unlabeled ligand (diazepam). The results are expressed as a percent of control specific binding ((measured specific binding/control specific binding)×100) obtained in the presence of compound 5, 6 and 7.
In each experiment, the respective reference compound was tested concurrently with compound 5, 6 and 7 in order to assess the assay suitability. It was tested at several concentrations (for IC50 value determination).

[4] = 10^−5 M, 0.4 nM [3H]flunitrazepam
[5] = 10^−6 M, 0.4 nM [3H]flunitrazepam
[6] = 10^−7 M, 0.4 nM [3H]flunitrazepam
[7] = 10^−8 M, 0.4 nM [3H]flunitrazepam

Structure (SMILES): Cc1nnc2n1-c1sccc1C(c1ccccc1)=NC2 [compound 7, 9-Methyl-4-phenyl-6H-thieno[3,2-f]-s-triazolo[4,3-a][1,4]diazepine, reference compound]
- Activity in increasing plasma apo A1 (in words) [1]: active in increasing plasma apolipoprotein A1
- Apo A1 (ng secreted per mg cell protein), 1st ([2]; 3 μM): 91 ng secreted per mg cell protein
- Apo A1 (ng secreted per mg cell protein), 2nd ([2]; 3 μM): 91 ng secreted per mg cell protein
- Apo A1 (ng secreted per mg cell protein), mean ([2]; 3 μM): 91 ng secreted per mg cell protein
- Apo A1 (ng secreted per mg cell protein), 1st ([2]; 10 μM): 266 ng secreted per mg cell protein
- Apo A1 (ng secreted per mg cell protein), 2nd ([2]; 10 μM): 191 ng secreted per mg cell protein
- Apo A1 (ng secreted per mg cell protein), mean ([2]; 10 μM): 229 ng secreted per mg cell protein
- Apo A1 (ng secreted per mg cell protein), 1st ([2]; 30 μM): 236 ng secreted per mg cell protein
- Apo A1 (ng secreted per mg cell protein), 2nd ([2]; 30 μM): 374 ng secreted per mg cell protein
- Apo A1 (ng secreted per mg cell protein), mean ([2]; 30 μM): 305 ng secreted per mg cell protein
- Apo A1 (ng secreted per mg cell protein), 1st ([2]; 100 μM): 254 ng secreted per mg cell protein
- Apo A1 (ng secreted per mg cell protein), 2nd ([2]; 100 μM): 364 ng secreted per mg cell protein
- Apo A1 (ng secreted per mg cell protein), mean ([2]; 100 μM): 309 ng secreted per mg cell protein
- Stimulation of apo A1 secretion versus control level (in words) ([2]; at concentrations as low as 3 μM, human hepatocytes): clearly less active
- Affinity to the benzodiazepine receptor (in words) [3]: moderate affinity
- IC50 ([3]; 0.4 nM [3H]flunitrazepam, rat cerebral cortex membranes, read-out: IC50 of displacing the labelled ligand): ~0.5 µM
- % of control specific binding, 1st [3, 4]: 2.3 % of control specific binding
- % of control specific binding, 2nd [3, 4]: 1.8 % of control specific binding
- % of control specific binding, mean [3, 4]: 2.1 % of control specific binding
- % of control specific binding, 1st [3, 5]: 18.9 % of control specific binding
- % of control specific binding, 2nd [3, 5]: 17.9 % of control specific binding
- % of control specific binding, mean [3, 5]: 18.4 % of control specific binding
- % of control specific binding, 1st [3, 6]: 73.5 % of control specific binding
- % of control specific binding, 2nd [3, 6]: 68.0 % of control specific binding
- % of control specific binding, mean [3, 6]: 70.7 % of control specific binding
- % of control specific binding, 1st [3, 7]: 89.0 % of control specific binding
- % of control specific binding, 2nd [3, 7]: 104.1 % of control specific binding
- % of control specific binding, mean [3, 7]: 96.5 % of control specific binding
